Experimental data: patent US12404289B2 (Gilead Sciences, Inc., priority 2020, dated 2025)
Like-named read-outs stand apart in the source and are kept apart here.

How the values were obtained:
Format in all cases: cell-based
[1] = CC50 assay (cytopathology in HEp-2 cells); settings: human, HEp-2 cells, 4 days, CellTiter-Glo, read-out: RSV CC50
Experimental: The cytopathology of compounds in HEp-2 cells is determined in the following manner. HEp-2 cells are suspended in DMEM+GlutaMAX (supplemented with 10% FBS and 1% Penicillin/Streptomycin) and seeded into 96 well plates (3×10^3/well). After a 4-hour incubation at 37° C.+5% CO2, three-fold serial dilutions of compounds are added to each well using an HP D300e digital dispenser. The cells are then incubated for 4 days at 37° C. and 5% CO2. The final volume in each well is 200 μL. Untreated wells are included as controls for 100% cell viability, while compounds treated with 5 uM puromycin are included as controls for 0% viability. Following the incubation, 100 μL of culture supernatant is removed from each well and replaced with 100 μL of CellTiter-Glo reagent (Promega, Madison, WI, Cat #G7573). The plates are then rocked for 2 minutes followed by a 10-minute incubation at 25° C. Compound-induced cytopathic effect is then assessed by measuring luminescence signal using and Envision plate reader. Values are normalized to the untreated DMSO and puromycin-treated controls (as 100% and 0% viability, respectively) and data is fit using non-linear regression analysis using XLfit4. The CC50 value for each compound is then determined as the concentration reducing cell viability by 50%.

[2] = tested on: Respiratory syncytial virus (RSV) strain A2; assay: RSV antiviral assay (HEp-2, 96 well)
[3] = tested on: Respiratory syncytial virus recombinant with luciferase (RSV-Luc5); assay: microbe, parasite or virus in culture; settings: Table 3
[4] = tested on: Respiratory syncytial virus (RSV) strain A2; assay: Hep-2 RSV2 384-well assay (EC50-HEP2-384); settings: human respiratory syncytial virus, HEp-2, 96 h, HEp-2 cells, RSV A2, MOI=4, 4 days, Table 3
SARS-CoV-2 = SARS-CoV-2 antiviral assay (A549-hACE2, Nano luciferase); settings: A549-hACE2 cells, SARS-CoV2-Nano, MOI 0.025, 48 h, Table 4, read-out: EC50 SARS CoV2
[5] = tested on: Recombinant respiratory syncytial virus expressing the firefly luciferase protein (RSV-Fluc); assay: microbe, parasite or virus in culture; settings: Table 4
[6] = human respiratory syncytial virus, HEp-2, 96 h, read-out: EC50-RSV-HEP-2-96, HEp-2 cells, RSV A2, MOI=4, 4 days, 96 well, Table 2
[7] = human respiratory syncytial virus, HEp-2, 72 h, read-out: EC50 RSVFluc-Hep2 384, HEp-2 cells, RSV-Luc5, MOI=0.5, 3 days, 384 well
[8] = human respiratory syncytial virus, NHBE, 72 h, read-out: EC50 RSVFluc NHBE 96, NHBE cells, RSV-Fluc, MOI of 0.1, three days, 96 well
[9] = read-out: EC50 RSV HEP2 96, HEp-2 cells, RSV A2, MOI=4, 4 days, 96 well, Table 3
[10] = human respiratory syncytial virus, HEp-2, 96 h, read-out: EC50-RSV-HEP-2-96, HEp-2 cells, RSV A2, MOI=4, 4 days, 96 well, CellTiter-Glo, Table 1
[11] = Severe acute respiratory syndrome coronavirus 2, 48 h

## COC(=O)[C@H](C)N[P@](=O)(OC[C@H]1O[C@@](C#N)(c2ccc3c(N)ncnn23)[C@H](O)[C@@H]1O)Oc1ccccc1
[1]; Table 2
  CC50 at 4 days: 48.5 µM
[2]; [6]
  EC50: 0.144 µM

## CC(C)OC(=O)[C@H](C)N[P@](=O)(OC[C@H]1O[C@@](C#N)(c2ccc3c(N)ncnn23)[C@H](O)[C@@H]1O)Oc1ccccc1
[1]; Table 2
  CC50 at 4 days: > 9.6 µM
[2]; [6]
  EC50: 0.364 µM

## CCOC(=O)[C@H](C)NP(=O)(OC[C@H]1O[C@@](C#N)(c2ccc3c(N)ncnn23)[C@H](O)[C@@H]1O)Oc1ccccc1 (stereo partly drawn)
[1]; Table 2
  CC50 at 4 days: > 70 µM
[2]; [6]
  EC50: 0.296 µM

## C[C@H](NP(=O)(OC[C@H]1O[C@@](C#N)(c2ccc3c(N)ncnn23)[C@H](O)[C@@H]1O)Oc1ccccc1)C(=O)OC1CCC1 (stereo partly drawn)
[1]; Table 2
  CC50 at 4 days: 34.2 µM
[2]; [6]
  EC50: 0.0751 µM

## CCC(CC)COC(=O)[C@H](C)NP(=O)(OC[C@H]1O[C@@](C#N)(c2ccc3c(N)ncnn23)[C@H](OC(C)=O)[C@@H]1OC(C)=O)Oc1cccc2ccccc12 (single isomer, unassigned) [Example 78b]
[3]; [7]
  EC50: 0.0338 µM
[4]
  EC50: 0.0756 µM
SARS-CoV-2
  EC50: 0.02 µM
[5]; [8]
  EC50: 0.00567 µM
[2]; [9]
  EC50: 0.021 µM

## CC(=O)O[C@H]1[C@@H](OC(C)=O)[C@](C#N)(c2ccc3c(N)ncnn23)O[C@@H]1COP(=O)(N[C@@H](C)C(=O)OC1CC2(CCC2)C1)Oc1cccc2ccccc12 (single isomer, unassigned) [Example 83b]
[3]; read-out: EC50 RSVFluc-Hep2 384, HEp-2 cells, RSV-Luc5, MOI=0.5, 3 days, 384 well
  EC50: 0.0204 µM
[4]
  EC50: 0.0279 µM
SARS-CoV-2
  EC50: 0.0328 µM
[5]; read-out: EC50 RSVFluc NHBE 96, NHBE cells, RSV-Fluc, MOI of 0.1, three days, 96 well
  EC50: 0.00712 µM
[2]; [9]
  EC50: 0.00732 µM

## COC(=O)[C@H](C)N[P@](=O)(OC[C@H]1O[C@@](C#N)(c2ccc3c(N)ncnn23)[C@H](OC(=O)C(C)C)[C@@H]1OC(=O)C(C)C)Oc1ccccc1 [Example 4, (2R,3R,4R,5R)-2-(4-aminopyrrolo[2,1-f][1,2,4]triazin-7-yl)-2-cyano-5-((((S)—(((S)-1-methoxy-1-oxopropan-2-yl)amino)(phenoxy)phosphoryl)oxy)methyl)tetrahydrofuran-3,4-diyl bis(2-methylpropanoate)]
[1]; Table 1
  CC50 at 4 days: 5.58 µM
[2]; [10]
  EC50: 0.0939 µM

## CCC(=O)O[C@H]1[C@@H](OC(=O)CC)[C@](C#N)(c2ccc3c(N)ncnn23)O[C@@H]1CO[P@@](=O)(N[C@@H](C)C(=O)OC)Oc1ccccc1 [Example 5, (2R,3R,4R,5R)-2-(4-aminopyrrolo[2,1-f][1,2,4]triazin-7-yl)-2-cyano-5-((((S)—(((S)-1-methoxy-1-oxopropan-2-yl)amino)(phenoxy)phosphoryl)oxy)methyl) tetrahydrofuran-3,4-diyl Dipropionate]
[1]; Table 1
  CC50 at 4 days: 9.54 µM
[2]; [10]
  EC50: 0.109 µM

## COC(=O)[C@H](C)N[P@](=O)(OC[C@H]1O[C@@](C#N)(c2ccc3c(N)ncnn23)[C@H](OC(C)=O)[C@@H]1OC(C)=O)Oc1ccccc1 [Example 6, (2R,3R,4R,5R)-2-(4-aminopyrrolo[2,1-f][1,2,4]triazin-7-yl)-2-cyano-5-((((S)—(((S)-1-methoxy-1-oxopropan-2-yl)amino)(phenoxy)phosphoryl)oxy)methyl) tetrahydrofuran-3,4-diyl Diacetate]
[1]; Table 1
  CC50 at 4 days: 26.4 µM
[2]; [10]
  EC50: 0.193 µM

## CCC(=O)O[C@H]1[C@@H](OC(=O)CC)[C@](C#N)(c2ccc3c(N)ncnn23)O[C@@H]1CO[P@@](=O)(N[C@@H](C)C(=O)OC(C)C)Oc1ccccc1 [Example 8, (2R,3R,4R,5R)-2-(4-aminopyrrolo[2,1-f][1,2,4]triazin-7-yl)-2-cyano-5-((((S)—(((S)-1-isopropoxy-1-oxopropan-2-yl)amino)(phenoxy)phosphoryl)oxy)methyl) tetrahydrofuran-3,4-diyl Dipropionate]
[1]; Table 1
  CC50 at 4 days: > 40 µM
[2]; [10]
  EC50: 0.157 µM

## CC(=O)O[C@H]1[C@@H](OC(C)=O)[C@](C#N)(c2ccc3c(N)ncnn23)O[C@@H]1CO[P@@](=O)(N[C@@H](C)C(=O)OC(C)C)Oc1ccccc1 [Example 9, (2R,3R,4R,5R)-2-(4-aminopyrrolo[2,1-f][1,2,4]triazin-7-yl)-2-cyano-5-((((S)—(((S)-1-isopropoxy-1-oxopropan-2-yl)amino)(phenoxy)phosphoryl)oxy)methyl) tetrahydrofuran-3,4-diyl Diacetate]
[1]; Table 1
  CC50 at 4 days: > 50 µM
[2]; [10]
  EC50: 0.228 µM

## CCOC(=O)[C@H](C)N[P@](=O)(OC[C@H]1O[C@@](C#N)(c2ccc3c(N)ncnn23)[C@H](OC(=O)C(C)C)[C@@H]1OC(=O)C(C)C)Oc1ccccc1 [Example 10, (2R,3R,4R,5R)-2-(4-aminopyrrolo[2,1-f][1,2,4]triazin-7-yl)-2-cyano-5-((((((S)-1-ethoxy-1-oxopropan-2-yl)amino)(phenoxy)phosphoryl)oxy)methyl)tetrahydrofuran-3,4-diyl bis(2-methylpropanoate)]
[1]; Table 1
  CC50 at 4 days: 10.3 µM
[2]; [10]
  EC50: 0.0529 µM

## CCC(CC)COC(=O)[C@H](C)NP(=O)(OC[C@H]1O[C@@](C#N)(c2ccc3c(N)ncnn23)[C@H](O)[C@@H]1O)Oc1c(C)cccc1C (stereo partly drawn) [Example 19, 2-Ethylbutyl ((((2R,3S,4R,5R)-5-(4-aminopyrrolo[2,1-f][1,2,4]triazin-7-yl)-5-cyano-3,4-dihydroxytetrahydrofuran-2-yl)methoxy)(2,6-dimethylphenoxy)phosphoryl)-L-alaninate]
[1]; Table 1
  CC50 at 4 days: 26.5 µM
[2]; [10]
  EC50: 0.687 µM

## CC(=O)O[C@H]1[C@@H](OC(C)=O)[C@](C#N)(c2ccc3c(N)ncnn23)O[C@@H]1COP(=O)(N[C@@H](C)C(=O)OC1CC2(CCC2)C1)Oc1ccccc1 (stereo partly drawn) [Example 45, (2R,3R,4R,5R)-2-(4-aminopyrrolo[2,1-f][1,2,4]triazin-7-yl)-2-cyano-5-((((((S)-1-oxo-1-(spiro[3.3]heptan-2-yloxy)propan-2-yl)amino)(phenoxy)phosphoryl)oxy)methyl)tetrahydrofuran-3,4-diyl Diacetate]
[3]; [7]
  EC50: 0.019 µM
[4]
  EC50: 0.0311 µM
SARS-CoV-2; [11]
  EC50: 0.105 µM
[5]; [8]
  EC50: 0.00529 µM

## CC(C)C(=O)O[C@H]1[C@@H](OC(=O)C(C)C)[C@](C#N)(c2ccc3c(N)ncnn23)O[C@@H]1COP(=O)(N[C@@H](C)C(=O)OC1CC2(CCC2)C1)Oc1ccccc1 (stereo partly drawn) [Example 46, (2R,3R,4R,5R)-2-(4-aminopyrrolo[2,1-f][1,2,4]triazin-7-yl)-2-cyano-5-((((((S)-1-oxo-1-(spiro[3.3]heptan-2-yloxy)propan-2-yl)amino)(phenoxy)phosphoryl)oxy)methyl)tetrahydrofuran-3,4-diyl bis(2-methylpropanoate)]
[3]; [7]
  EC50: 0.0193 µM
[4]
  EC50: 0.0523 µM
SARS-CoV-2; [11]
  EC50: 0.237 µM
[5]; [8]
  EC50: 0.00779 µM

## CC(=O)O[C@H]1[C@@H](OC(C)=O)[C@](C#N)(c2ccc3c(N)ncnn23)O[C@@H]1COP(=O)(N[C@@H](C)C(=O)OC1CC(C)(C)C1)Oc1ccc(C(C)(C)C)cc1 (stereo partly drawn) [Example 96, (2R,3R,4R,5R)-2-(4-aminopyrrolo[2,1-f][1,2,4]triazin-7-yl)-5-((((4-(tert-butyl)phenoxy)(((S)-1-(3,3-dimethylcyclobutoxy)-1-oxopropan-2-yl)amino)phosphoryl)oxy)methyl)-2-cyanotetrahydrofuran-3,4-diyl Diacetate]
[3]; [7]
  EC50: 0.0302 µM
[4]
  EC50: 0.0399 µM
SARS-CoV-2; [11]
  EC50: 0.0959 µM
[5]; [8]
  EC50: 0.00548 µM

## CC(=O)O[C@H]1[C@@H](OC(C)=O)[C@](C#N)(c2ccc3c(N)ncnn23)O[C@@H]1COP(=O)(N[C@@H](C)C(=O)OCC(C)C)Oc1ccc(C(C)(C)C)cc1 (stereo partly drawn) [Example 137, (2R,3R,4R,5R)-2-(4-aminopyrrolo[2,1-f][1,2,4]triazin-7-yl)-5-((((4-(tert-butyl)phenoxy)(((S)-1-isobutoxy-1-oxopropan-2-yl)amino)phosphoryl)oxy)methyl)-2-cyanotetrahydrofuran-3,4-diyl Diacetate]
[3]; [7]
  EC50: 0.0221 µM
[4]
  EC50: 0.0315 µM
SARS-CoV-2; [11]
  EC50: 0.0674 µM
[5]; [8]
  EC50: 0.00482 µM
